# Measured values reported in patent US20250151724A1, “Liquid Soil Treatments Containing Choline” (Harrell's, LLC, priority 2023, published 2025).
# Where two headings read alike, the source gives them in different places.
# Test system: 'A4' creeping bentgrass
# Conditions: for Root Diameter / Root Length / Root Surface Area / Root Volume / Root Viability: end of trial; for Root Viability: TTC method
# Description: Mature ‘A4’ creeping bentgrass plugs (4″ diameter) were harvested from field plots and transplanted into 6-inch pots filled with a USGA (United States Golf Association) specification sand mix (fine sand with 10% calcined clay). The bentgrass was maintained at 15 mm and fertilized at 0.2 lb N/1,000 ft^2 at transplanting and then 0.15 lb N/1,000 ft^2 biweekly thereafter. After about 2 months of non-stressed growth with optimum temperature, water, fertilizer, and light, the pots were placed in a controlled environment growth chamber at 95° F. day (12 h)/77° F. night (12 h), light intensity at 400 μmol m^−2 s^−1, 12 h photoperiod, and 65% RH. Water was replaced 5 times weekly at 55% of measured evapotranspiration (ET). […] Four treatments were tested with 4 replications for each treatment. The choline chloride solution at the […] listed below was applied to the canopy at 2 gallons/1,000 ft^2 and the same amount of water was applied to the control (Treatment #1).
# The treatments were as follows: • 1. Fertilized control (0.15 lb. Nitrogen (N) per 1,000 ft^2 every 14 days from 28-8-18 with UMAXX® fertilizer (Harrell's LLC, Lakeland, Florida) • 2. Choline at 0.125 oz./1,000 ft^2 biweekly+0.15 lb. N/1,000 ft^2 biweekly • 3. Choline at 0.25 oz./1,000 ft^2 biweekly+0.15 lb. N/1,000 ft^2 biweekly • 4. Choline at 0.5 oz./1,000 ft^2 biweekly+0.15 lb. N/1,000 ft^2 biweekly The rate and source of fertilization for treatments #2, 3, and 4 were the same as treatment #1 (fertilized control).
# The stress period of the trial lasted for 8 weeks, and there was a total of 4 treatment applications. The following measurements/data were taken at day 0, 14, 28, 42, and 56: • a. Visual leaf color was rated on a 1-9 scale, with 1 indicating brown color and 9 indicating dark green color. • b. Photochemical efficiency was measured with chlorophyll fluorometer (OS-50II, Opti-Sciences, Inc., Hudson, NH). Three readings were collected from each pot and the average was used for statistical analysis. • c. Leaf chlorophyll content and carotenoids were extracted in acetone and measured with a spectrophotometer after incubation for 72 h. • d. Leaf proline content was determined based on the method of Bates et al. 1973 and as described by Wu et al. 2017. • e. Leaf antioxidant superoxide dismutase (SOD) activity was determined based on the method as described by Zhang et al. 2015. • f. Root viability, root samples were collected at the end of the trial and TTC method was used to measure root viability as described by Zhang et al., 2017. • g. Root growth characteristics (root length, root surface area, root diameter, root length density) were determined using WinRHIZO technology. • h. Root biomass of the whole pot was measured at day 56. For leaf chlorophyll, carotenoids, proline, and superoxide dismutase (SOD) activity, fresh samples were collected every two weeks and frozen with liquid and stored at −80° C. before lab analysis.
# [1] = 0.125 oz/1000 ft^2 biweekly, day 0
# [2] = 0.125 oz/1000 ft^2 biweekly, day 14
# [3] = 0.125 oz/1000 ft^2 biweekly, day 28
# [4] = 0.125 oz/1000 ft^2 biweekly, day 42
# [5] = 0.125 oz/1000 ft^2 biweekly, day 56
# [6] = 0.25 oz/1000 ft^2 biweekly, day 0
# [7] = 0.25 oz/1000 ft^2 biweekly, day 14
# [8] = 0.25 oz/1000 ft^2 biweekly, day 28
# [9] = 0.25 oz/1000 ft^2 biweekly, day 42
# [10] = 0.25 oz/1000 ft^2 biweekly, day 56
# [11] = 0.5 oz/1000 ft^2 biweekly, day 0
# [12] = 0.5 oz/1000 ft^2 biweekly, day 14
# [13] = 0.5 oz/1000 ft^2 biweekly, day 28
# [14] = 0.5 oz/1000 ft^2 biweekly, day 42
# [15] = 0.5 oz/1000 ft^2 biweekly, day 56
structure (smiles),measurement,setting,value
"C[N+](C)(C)CCO.[Cl-] [Choline, choline chloride]",Carotenoids,[1],1.05a mg/g Fresh Weight
same,Chlorophyll,[1],3.04a mg/g Fresh Weight
same,"Leaf color (1-9, 9 = dark green)",[1],8.0a
same,Photochemical Efficiency (Fv/F^m),[1],0.726a
same,Proline content,[1],64.1a μg/g FW
same,SOD activity,[1],909.7a Unit/g FW
same,Carotenoids,[2],0.88b mg/g Fresh Weight
same,Chlorophyll,[2],2.40c mg/g Fresh Weight
same,"Leaf color (1-9, 9 = dark green)",[2],7.1ab
same,Photochemical Efficiency (Fv/F^m),[2],0.659a
same,Proline content,[2],170.7a μg/g FW
same,SOD activity,[2],906.4a Unit/g FW
same,Carotenoids,[3],0.76c mg/g Fresh Weight
same,Chlorophyll,[3],2.16b mg/g Fresh Weight
same,"Leaf color (1-9, 9 = dark green)",[3],6.0b
same,Photochemical Efficiency (Fv/F^m),[3],0.668a
same,Proline content,[3],156.5a μg/g FW
same,SOD activity,[3],865.7ab Unit/g FW
same,Carotenoids,[4],0.69a mg/g Fresh Weight
same,Chlorophyll,[4],1.74ab mg/g Fresh Weight
same,"Leaf color (1-9, 9 = dark green)",[4],6.3b
same,Photochemical Efficiency (Fv/F^m),[4],0.611ab
same,Proline content,[4],156.1ab μg/g FW
same,SOD activity,[4],752.3bc Unit/g FW
same,Carotenoids,[5],0.67b mg/g Fresh Weight
same,Chlorophyll,[5],1.72ab mg/g Fresh Weight
same,"Leaf color (1-9, 9 = dark green)",[5],6.0b
same,Photochemical Efficiency (Fv/F^m),[5],0.596ab
same,Proline content,[5],139.7b μg/g FW
same,Root Biomass,[5],1.269a g/pot
same,SOD activity,[5],721.2bc Unit/g FW
same,Root Diameter,0.125 oz/1000 ft^2 biweekly,0.161b mm
same,Root Length,0.125 oz/1000 ft^2 biweekly,17.7ab cm/cm^3
same,Root Surface Area,0.125 oz/1000 ft^2 biweekly,0.90ab cm^2/cm^3
same,Root Volume,0.125 oz/1000 ft^2 biweekly,3.61ab cm^3/dm^3
same,Root Viability,0.125 oz/1000 ft^2 biweekly,0.78ab A490/g FW
same,Carotenoids,[6],1.03a mg/g Fresh Weight
same,Chlorophyll,[6],2.95a mg/g Fresh Weight
same,"Leaf color (1-9, 9 = dark green)",[6],8.0a
same,Photochemical Efficiency (Fv/F^m),[6],0.726a
same,Proline content,[6],63.1a μg/g FW
same,SOD activity,[6],870.8a Unit/g FW
same,Carotenoids,[7],1.02a mg/g Fresh Weight
same,Chlorophyll,[7],2.76a mg/g Fresh Weight
same,"Leaf color (1-9, 9 = dark green)",[7],7.4a
same,Photochemical Efficiency (Fv/F^m),[7],0.672a
same,Proline content,[7],177.4a μg/g FW
same,SOD activity,[7],930.7a Unit/g FW
same,Carotenoids,[8],0.94a mg/g Fresh Weight
same,Chlorophyll,[8],2.75a mg/g Fresh Weight
same,"Leaf color (1-9, 9 = dark green)",[8],6.6a
same,Photochemical Efficiency (Fv/F^m),[8],0.645a
same,Proline content,[8],162.3a μg/g FW
same,SOD activity,[8],885.1a Unit/g FW
same,Carotenoids,[9],0.84a mg/g Fresh Weight
same,Chlorophyll,[9],2.10ab mg/g Fresh Weight
same,"Leaf color (1-9, 9 = dark green)",[9],6.7a
same,Photochemical Efficiency (Fv/F^m),[9],0.648a
same,Proline content,[9],169.5a μg/g FW
same,SOD activity,[9],872.3a Unit/g FW
same,Carotenoids,[10],0.84a mg/g Fresh Weight
same,Chlorophyll,[10],1.99a mg/g Fresh Weight
same,"Leaf color (1-9, 9 = dark green)",[10],6.6a
same,Photochemical Efficiency (Fv/F^m),[10],0.615a
same,Proline content,[10],267.1a μg/g FW
same,Root Biomass,[10],1.273a g/pot
same,SOD activity,[10],866.5a Unit/g FW
same,Root Diameter,0.25 oz/1000 ft^2 biweekly,0.170ab mm
same,Root Length,0.25 oz/1000 ft^2 biweekly,18.4a cm/cm^3
same,Root Surface Area,0.25 oz/1000 ft^2 biweekly,0.98a cm^2/cm^3
same,Root Volume,0.25 oz/1000 ft^2 biweekly,4.18a cm^3/dm^3
same,Root Viability,0.25 oz/1000 ft^2 biweekly,1.28a A490/g FW
same,Carotenoids,[11],1.07a mg/g Fresh Weight
same,Chlorophyll,[11],3.07a mg/g Fresh Weight
same,"Leaf color (1-9, 9 = dark green)",[11],8.0a
same,Photochemical Efficiency (Fv/F^m),[11],0.718a
same,Proline content,[11],53.5a μg/g FW
same,SOD activity,[11],878.3a Unit/g FW
same,Carotenoids,[12],0.98ab mg/g Fresh Weight
same,Chlorophyll,[12],2.67ab mg/g Fresh Weight
same,"Leaf color (1-9, 9 = dark green)",[12],7.4a
same,Photochemical Efficiency (Fv/F^m),[12],0.690a
same,Proline content,[12],180.0a μg/g FW
same,SOD activity,[12],911.1a Unit/g FW
same,Carotenoids,[13],0.91ab mg/g Fresh Weight
same,Chlorophyll,[13],2.54ab mg/g Fresh Weight
same,"Leaf color (1-9, 9 = dark green)",[13],6.8a
same,Photochemical Efficiency (Fv/F^m),[13],0.661a
same,Proline content,[13],167.1a μg/g FW
same,SOD activity,[13],900.7a Unit/g FW
same,Carotenoids,[14],0.84a mg/g Fresh Weight
same,Chlorophyll,[14],2.18a mg/g Fresh Weight
same,"Leaf color (1-9, 9 = dark green)",[14],6.9a
same,Photochemical Efficiency (Fv/F^m),[14],0.659a
same,Proline content,[14],171.8a μg/g FW
same,SOD activity,[14],836.4ab Unit/g FW
same,Carotenoids,[15],0.83a mg/g Fresh Weight
same,Chlorophyll,[15],2.01a mg/g Fresh Weight
same,"Leaf color (1-9, 9 = dark green)",[15],6.9a
same,Photochemical Efficiency (Fv/F^m),[15],0.610a
same,Proline content,[15],278.0a μg/g FW
same,Root Biomass,[15],1.270a g/pot
same,SOD activity,[15],815.7ab Unit/g FW
same,Root Diameter,0.5 oz/1000 ft^2 biweekly,0.176a mm
same,Root Length,0.5 oz/1000 ft^2 biweekly,18.8a cm/cm^3
same,Root Surface Area,0.5 oz/1000 ft^2 biweekly,0.99a cm^2/cm^3
same,Root Volume,0.5 oz/1000 ft^2 biweekly,4.15a cm^3/dm^3
same,Root Viability,0.5 oz/1000 ft^2 biweekly,1.10a A490/g FW
